Patent US9932341B2, “Use of pyrazolopyrimidine derivatives for the treatment of PI3K-delta related disorders” (Incyte Corporation, priority 2013, dated 2018)
Structures can show the parent of a compound that is named as a salt.

Columns and labels:
[1] = test system: Pfeiffer cell line (diffuse large B cell lymphoma); assay: Pfeiffer Cell Proliferation Assay (Example B2); type: cell-based, human
Protocol: Pfeiffer cell line (diffuse large B cell lymphoma) are purchased from ATCC (Manassas, Va.) and maintained in the culture medium recommended (RPMI and 10% FBS). To measure the anti-proliferation activity of the compounds, the Pfeiffer cells are plated with the culture medium (2×10^3 cells well per […]) into 96-well ultra-low binding plates (Corning, Corning, N.Y.), in the presence or absence of a concentration range of test compounds. After 3-4 days, [^3H]-thymidine (1 μCi/well) (PerkinElmer, Boston, Mass.) in PBS is then added to the cell culture for an additional 12 hours before the incorporated radioactivity is separated by filtration with water through GF/B filters (Packard Bioscience, Meriden, Conn.) and measured by liquid scintillation counting with a TopCount (Packard Bioscience).

[2] = test system: Pfeiffer human tumor xenograft model of diffuse large B-cell lymphoma; assay: Pfeiffer Model of Lymphoma (Example D); type: in vivo; conditions: SCID mice
Protocol: Female SCID mice, (5 to 8 weeks of age, Charles River Laboratories, Wilmington, Mass.) were inoculated with 1×10^7 tumor cells (Pfeiffer, ATCC #CRL-2632, Manassas, Va.) and matrigel (BD Biosciences #354234) in 0.2 mL sterile saline. The inoculation was performed subcutaneously on the flank. Tumor tissue fragments (approximately 3 mm×3 mm) were collected 3 to 6 weeks after the inoculation of cultured cells and implanted subcutaneously in lieu of cellular inoculation. Tissue fragments were implanted as solid pieces using blunt-tip forceps. The treatment of tumor bearing mice was started 15 to 25 days after tumor inoculation, depending upon the tumor size. Animals were sorted to obtain roughly equivalent mean tumor volumes in each group. Minimum mean tumor volume in all groups was 150 mm3 on the first day of treatment and groups consisted of 7 animals. Experimental therapeutic agent, Example 347, was administered to mice orally (PO). Treatment frequency was 2 times daily for a minimum of 14 days for efficacy. The size of subcutaneous tumors was measured 2 to 3 times weekly using a digital caliper. The tumor volume was calculated by measuring the tumor in 2 dimensions and utilizing the equation: Volume=[Length×(Width2)]/2; where the larger number was length, and the smaller number width. If multiple tumors were formed, the final volume was the sum of the individual tumors subject to the same equation: eg, 2 tumors; Volume={[L1×(W1)2]/2}+{[L2×(W2)2]/2}. Effects on tumor growth were reported as percent tumor growth inhibition (% TGI). Percent TGI was calculated with the equation: (1−(Tx vol./control vol.))*100, where control volume was the vehicle or untreated tumor volume on a given day, and Tx volume was any treatment group tumor volume on that same day. Statistical differences between treatment and vehicle controls were assessed using ANOVA: Single Factor test.

PI3Kδ (p110δ/p85α) = PI3Kδ (p110δ/p85α) (Homo sapiens (Human), UniProt O00329); assay: PI3Kδ Scintillation Proximity Assay (Example A3); type: biochemical; conditions: 20 μM ATP, 20 μM PIP2, 4 nM PI3Kδ, read-out: PI3Kδ SPA IC50
In short: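 SPA with 4 nM p110δ/p85α, 20 μM PIP2, 20 μM ATP plus [γ-^33P]ATP, in 20 mM MOPS pH 6.7, 10 mM MgCl2, 5 mM DTT, 0.03% CHAPS, 0.5% DMSO, room temperature. Stopped with EDTA/ATP, WGA SPA beads, overnight shaking, scintillation counting. IC50 from % control activity vs log concentration.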

PI3Kδ = PI3Kδ (Homo sapiens (Human), UniProt O00329); assay: PI3K Enzyme Assay (Example A2, [γ-33P]ATP filter plate); type: biochemical; conditions: 1000 μM ATP, 50 μM PIP2
Protocol: PI3K isoforms α, β, δ and γ are purchased from Millipore (Bedford, Mass.).
Inhibitors are first diluted serially in DMSO and added to the plate wells before the addition of other reaction components. The final concentration of DMSO in the assay is 0.5%. The PI3K assays are carried out at room temperature in 20 mM MOPS, pH 6.7, 10 mM MgCl2, 5 mM DTT and CHAPS 0.03%. The reaction mixture is prepared containing 50 μM PIP2, kinase and varying concentration of inhibitors. Reactions are initiated by the addition of ATP containing 2.2 μCi [γ-^33P]ATP to a final concentration of 1000 μM. […] After drying by aspiration and blotting, the plate is air dried in an incubator at 37° C. overnight. Packard TopCount adapter (Millipore) is then attached to the plate followed with addition of 120 μL Microscint 20 scintillation cocktail (Perkin Elmer) in each well. […] IC50 determination is performed by fitting the curve of percent control activity versus the log of the inhibitor concentration using the GraphPad Prism 3.0 software.

Sequence of PI3Kδ (p110δ/p85α) (O00329 whole entry): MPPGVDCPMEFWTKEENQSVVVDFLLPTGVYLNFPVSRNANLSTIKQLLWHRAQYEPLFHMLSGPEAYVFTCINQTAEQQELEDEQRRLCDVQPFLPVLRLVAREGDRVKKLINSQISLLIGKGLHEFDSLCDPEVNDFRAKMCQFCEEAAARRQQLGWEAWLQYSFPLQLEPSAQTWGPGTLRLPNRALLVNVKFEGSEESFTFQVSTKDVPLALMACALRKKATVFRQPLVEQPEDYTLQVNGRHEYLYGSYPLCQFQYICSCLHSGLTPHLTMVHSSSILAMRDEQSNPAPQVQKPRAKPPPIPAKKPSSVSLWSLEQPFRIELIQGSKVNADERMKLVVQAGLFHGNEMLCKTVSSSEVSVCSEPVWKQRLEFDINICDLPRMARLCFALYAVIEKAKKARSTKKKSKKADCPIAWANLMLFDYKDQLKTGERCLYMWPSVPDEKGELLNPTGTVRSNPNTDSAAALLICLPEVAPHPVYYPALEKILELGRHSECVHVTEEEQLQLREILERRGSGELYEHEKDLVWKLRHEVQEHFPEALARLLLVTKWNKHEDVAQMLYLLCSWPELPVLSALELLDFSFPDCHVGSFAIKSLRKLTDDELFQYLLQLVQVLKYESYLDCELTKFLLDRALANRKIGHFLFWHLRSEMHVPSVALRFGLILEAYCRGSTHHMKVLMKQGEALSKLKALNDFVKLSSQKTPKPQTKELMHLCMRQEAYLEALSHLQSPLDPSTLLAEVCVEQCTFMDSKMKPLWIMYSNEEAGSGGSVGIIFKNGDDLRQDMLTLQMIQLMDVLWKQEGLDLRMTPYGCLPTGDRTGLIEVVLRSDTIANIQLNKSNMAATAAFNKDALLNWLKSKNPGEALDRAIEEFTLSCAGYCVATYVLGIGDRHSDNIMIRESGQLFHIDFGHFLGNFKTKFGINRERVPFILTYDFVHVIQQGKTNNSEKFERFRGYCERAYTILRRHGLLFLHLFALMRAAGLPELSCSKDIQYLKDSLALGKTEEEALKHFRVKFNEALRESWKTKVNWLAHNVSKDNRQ
Sequence of PI3Kδ (p110δ/p85α) (P27986 whole entry partner): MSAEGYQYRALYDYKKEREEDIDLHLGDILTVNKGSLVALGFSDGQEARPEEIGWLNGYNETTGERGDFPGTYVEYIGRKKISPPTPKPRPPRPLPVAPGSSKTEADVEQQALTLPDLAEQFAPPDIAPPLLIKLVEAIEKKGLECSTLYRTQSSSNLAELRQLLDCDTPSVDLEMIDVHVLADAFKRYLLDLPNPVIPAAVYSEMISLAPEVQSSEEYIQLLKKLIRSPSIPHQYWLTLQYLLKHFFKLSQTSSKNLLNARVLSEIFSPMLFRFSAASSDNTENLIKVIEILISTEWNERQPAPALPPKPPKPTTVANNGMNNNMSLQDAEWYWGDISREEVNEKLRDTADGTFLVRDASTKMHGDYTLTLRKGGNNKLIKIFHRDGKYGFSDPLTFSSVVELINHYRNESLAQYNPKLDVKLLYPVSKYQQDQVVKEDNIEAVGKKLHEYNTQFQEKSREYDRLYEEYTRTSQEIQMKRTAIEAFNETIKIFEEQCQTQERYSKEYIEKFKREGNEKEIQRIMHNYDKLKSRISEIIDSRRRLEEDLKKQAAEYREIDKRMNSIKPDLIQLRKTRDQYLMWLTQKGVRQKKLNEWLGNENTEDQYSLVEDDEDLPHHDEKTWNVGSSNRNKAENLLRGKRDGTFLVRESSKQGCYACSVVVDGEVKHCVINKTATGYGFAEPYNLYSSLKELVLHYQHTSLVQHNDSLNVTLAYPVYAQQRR
Sequence of PI3Kδ (O00329 whole entry, canonical isoform): as the sequence (O00329 whole entry) above
Sequence of PI3Kδ (P27986 whole entry partner, canonical isoform): as the sequence (P27986 whole entry partner) above

| IC50 (PI3Kδ (p110δ/p85α)) | Compound | also measured |
| --- | --- | --- |
| – | CCOc1c(C(C)n2nc(C)c3c(N)ncnc32)cc(Cl)c(F)c1C1CNC(=O)C1 (single isomer, unassigned) [Example 347, 4-{3-[1-(4-amino-3-methyl-1H-pyrazolo[3,4-d]pyrimidin-1-yl)ethyl]-5-chloro-2-ethoxy-6-fluorophenyl}pyrrolidin-2-one] | anti-proliferative effects in vitro on Pfeiffer cancer cells [1]: sensitive; percent tumor growth inhibition ([2]; 0.3 mg/kg oral twice daily for 14 days): 22%; percent tumor growth inhibition ([2]; 1 mg/kg oral twice daily for 14 days): 24%; percent tumor growth inhibition ([2]; 3 mg/kg oral twice daily for 14 days): 36%; percent tumor growth inhibition ([2]; 10 mg/kg oral twice daily for 14 days): 58% |
| < 10 nM | COc1c(C(C)n2nc(C)c3c(N)ncnc32)cc(Cl)c(C)c1-c1ccc(C(=O)NCCO)nc1 (centres unmarked) [Example 23, 5-(3-(1-(4-amino-3-methyl-1H-pyrazolo[3,4-d]pyrimidin-1-yl)ethyl)-5-chloro-2-methoxy-6-methylphenyl)-N-(2-hydroxyethyl)picolinamide trifluoroacetate] | – |
| < 10 nM | COc1c(C(C)n2nc(C)c3c(N)ncnc32)cc(Cl)c(F)c1C1CN(C)C1 (centres unmarked) [Example 72] | – |
| < 10 nM | CCOc1c(C(C)n2nc(C)c3c(N)ncnc32)cc(Cl)c(C)c1C1CN(C[C@H](C)O)C1 (stereo partly drawn) [Example 96, (2S)-1-(3-{3-[1-(4-Amino-3-methyl-1H-pyrazolo[3,4-d]pyrimidin-1-yl)ethyl]-5-chloro-2-ethoxy-6-methylphenyl}azetidin-1-yl)propan-2-ol bis(trifluoroacetate)] | – |
| < 10 nM | CCOc1c(C(C)n2nc(C)c3c(N)ncnc32)cc(Cl)c(C)c1C1CN(C(=O)[C@H](C)O)C1 (stereo partly drawn) [Example 99, (2S)-1-(3-{3-[1-(4-Amino-3-methyl-1H-pyrazolo[3,4-d]pyrimidin-1-yl)ethyl]-5-chloro-2-ethoxy-6-methylphenyl}azetidin-1-yl)-1-oxopropan-2-ol trifluoroacetate] | – |
| < 10 nM | CNC(=O)[C@@H](C)N1CC(c2c(C)c(Cl)cc(C(C)n3nc(C)c4c(N)ncnc43)c2OC)C1 (stereo partly drawn) [Example 110, (2R)-2-(3-{3-[1-(4-Amino-3-methyl-1H-pyrazolo[3,4-d]pyrimidin-1-yl)ethyl]-5-chloro-2-methoxy-6-methylphenyl}azetidin-1-yl)-N-methylpropanamide trifluoroacetate] | – |
| < 10 nM | COc1c(C(C)n2nc(C)c3c(N)ncnc32)cc(Cl)c(C)c1C1CN(C(CO)C(F)(F)F)C1 (centres unmarked) [Example 113, 2-(3-{3-[1-(4-Amino-3-methyl-1H-pyrazolo[3,4-d]pyrimidin-1-yl)ethyl]-5-chloro-2-methoxy-6-methylphenyl}azetidin-1-yl)-3,3,3-trifluoropropan-1-ol] | – |
| < 10 nM | CCOc1c(C(C)n2nc(C)c3c(N)ncnc32)cc(Cl)c(F)c1C1CN(C[C@H](C)O)C1 (stereo partly drawn) [Example 149, (2S)-1-(3-{3-[1-(4-Amino-3-methyl-1H-pyrazolo[3,4-d]pyrimidin-1-yl)ethyl]-5-chloro-2-ethoxy-6-fluorophenyl}azetidin-1-yl)propan-2-ol] | – |
| < 10 nM | COc1c(C(C)n2nc(C)c3c(N)ncnc32)cc(Cl)c(C)c1C1CN([C@H](C)CO)C1 (stereo partly drawn) [Example 156, (2R)-2-(3-{3-[1-(4-Amino-3-methyl-1H-pyrazolo[3,4-d]pyrimidin-1-yl)ethyl]-5-chloro-2-methoxy-6-methylphenyl}azetidin-1-yl)propan-1-ol] | – |
| < 10 nM | COc1c(C(C)n2nc(C)c3c(N)ncnc32)cc(Cl)c(C)c1C1CN([C@H](C)C(=O)N(C)C)C1 (stereo partly drawn) [Example 159, (2R)-2-(3-{3-[1-(4-Amino-3-methyl-1H-pyrazolo[3,4-d]pyrimidin-1-yl)ethyl]-5-chloro-2-methoxy-6-methylphenyl}azetidin-1-yl)-N,N-dimethylpropanamide] | – |
| < 10 nM | CCOc1c(C(C)n2nc(C)c3c(N)ncnc32)cc(Cl)c(C)c1-c1ccc(C(=O)N(C)C)cn1 (centres unmarked) [Example 208, 6-{3-[1-(4-Amino-3-methyl-1H-pyrazolo[3,4-d]pyrimidin-1-yl)ethyl]-5-chloro-2-ethoxy-6-methylphenyl}-N,N-dimethylnicotinamide bis(trifluoroacetate)] | – |
| < 10 nM | CCOc1c(C(C)n2nc(C)c3c(N)ncnc32)cc(Cl)c(C#N)c1C1CN(C[C@H](C)O)C1 (stereo partly drawn) [Example 220, 4-[1-(4-Amino-3-methyl-1H-pyrazolo[3,4-d]pyrimidin-1-yl)ethyl]-6-chloro-3-ethoxy-2-{1-[(2S)-2-hydroxypropyl]azetidin-3-yl}benzonitrile] | – |
| < 10 nM | COc1c(C(C)n2nc(C)c3c(N)ncnc32)cc(Cl)c(C#N)c1C1CN(C[C@H](C)O)C1 (stereo partly drawn) [Example 269, 4-[1-(4-Amino-3-methyl-1H-pyrazolo[3,4-d]pyrimidin-1-yl)ethyl]-6-chloro-2-{1-[(2S)-2-hydroxypropyl]azetidin-3-yl}-3-methoxybenzo nitrile] | – |
| < 10 nM | COc1c(C(C)n2nc(C)c3c(N)ncnc32)cc(Cl)c(C#N)c1C1CN(C(C)CO)C1 (centres unmarked) [Example 272, 4-[1-(4-amino-3-methyl-1H-pyrazolo[3,4-d]pyrimidin-1-yl)ethyl]-6-chloro-2-[1-(2-hydroxy-1-methylethyl)azetidin-3-yl]-3-methoxybenzonitrile] | – |
| < 10 nM | COc1c(C(C)n2nc(C)c3c(N)ncnc32)cc(Cl)c(C)c1C1CNC(=O)O1 (centres unmarked) [Example 325, 5-{3-[1-(4-Amino-3-methyl-1H-pyrazolo[3,4-d]pyrimidin-1-yl)ethyl]-5-chloro-2-methoxy-6-methylphenyl}-1,3-oxazolidin-2-one] | – |
| – | COc1c([C@@H](C)n2nc(C)c3c(N)ncnc32)cc(Cl)c(C#N)c1C1CN(C[C@H](C)O)C1 [Example 361, 4-((R)-1-(4-amino-3-methyl-1H-pyrazolo[3,4-d]pyrimidin-1-yl)ethyl)-6-chloro-2-(1-((S)-2-hydroxypropyl)azetidin-3-yl)-3-methoxybenzonitrile] | IC50 (PI3Kδ): > 500 nM |
| < 10 nM | COc1c([C@H](C)n2nc(C)c3c(N)ncnc32)cc(Cl)c(C#N)c1C1CN(C[C@@H](C)O)C1 [Example 362] | – |

| Compound | IC50 (PI3Kδ (p110δ/p85α)) | also measured |
| --- | --- | --- |
| COc1c(C(C)n2nc(C)c3c(N)ncnc32)cc(Cl)c(C)c1-c1ccnc(C(=O)N(C)C)c1 (centres unmarked) [Example 200, 4-(3-(1-(4-Amino-3-methyl-1H-pyrazolo[3,4-d]pyrimidin-1-yl)ethyl)-5-chloro-2-methoxy-6-methylphenyl)-N,N-dimethylpicolinamide bis(2,2,2-trifluoroacetate)] | < 10 nM | – |
| CCOc1c(C(C)n2nc(C)c3c(N)ncnc32)cc(Cl)c(C)c1C1CNC(=O)C1 (centres unmarked) [Example 310, 4-{3-[1-(4-amino-3-methyl-1H-pyrazolo[3,4-d]pyrimidin-1-yl)ethyl]-5-chloro-2-ethoxy-6-methylphenyl}pyrrolidin-2-one] | < 10 nM | – |
